Read-outs that look alike come from different tables or passages of the source.
Columns and labels:
CpGSTD1 [1] = molecular target: T1, CpGSTD1 (Culex pipiens, UniProt H9M8E3); experiment: biochemical
T1 sequence (H9M8E3 1-211): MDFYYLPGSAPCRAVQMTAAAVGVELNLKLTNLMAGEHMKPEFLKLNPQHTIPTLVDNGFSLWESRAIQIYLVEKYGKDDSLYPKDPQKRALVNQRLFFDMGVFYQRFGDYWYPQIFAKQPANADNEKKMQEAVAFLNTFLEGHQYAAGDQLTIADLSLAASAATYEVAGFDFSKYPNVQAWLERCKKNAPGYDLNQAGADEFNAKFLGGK

CpGSTD2 [2] = molecular target: T2, CpGSTD2 (Culex pipiens, UniProt H9M8E4); experiment: biochemical
T2 sequence (H9M8E4 1-214): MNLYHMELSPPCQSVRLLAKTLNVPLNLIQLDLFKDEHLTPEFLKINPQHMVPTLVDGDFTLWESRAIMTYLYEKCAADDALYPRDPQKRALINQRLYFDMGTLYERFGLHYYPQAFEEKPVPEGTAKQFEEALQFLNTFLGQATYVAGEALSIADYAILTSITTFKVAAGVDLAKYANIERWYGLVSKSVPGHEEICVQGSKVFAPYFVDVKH

AgGSTD1-6 = conditions: cited from earlier work
AdGSTD1-1 = conditions: cited from earlier work
CpGSTD2 [3] = molecular target: T2, CpGSTD2
CpGSTD1 [4] = molecular target: T1, CpGSTD1; conditions: for Km: pH 6.5
CpGSTD2 [5] = molecular target: T2, CpGSTD2; experiment: Peroxidase activity assay with CMHP, CpGSTD2; type: biochemical; conditions: pH 7.5; conditions where a rate of at least 0.1 μmol min^−1 mg^−1 could be detected with CpGSTD1
CpGSTD1 [6] = molecular target: T1, CpGSTD1; experiment: Peroxidase activity assay with CMHP, CpGSTD1; type: biochemical; conditions: 0.125 to 1.0 mM CMHP, 7.5 mM reduced GSH, 25°C, pH 6.5
CpGSTD1 [7] = molecular target: T1, CpGSTD1; experiment: DDT dehydrochlorination assay, CpGSTD1; type: biochemical; conditions: over a period of 2 h, 1 μM DDT, 15 mM reduced GSH, 30°C, pH 6.5, HPLC
CpGSTD1 [8] = molecular target: T1, CpGSTD1; conditions: pH 6.5
CpGSTD2 [9] = molecular target: T2, CpGSTD2; remark: listed apart in the source
GST-2 = conditions: cited from earlier work
GST-1b = conditions: cited from earlier work
CpGSTD1 [10] = molecular target: T1, CpGSTD1; experiment: Permethrin metabolism assay; type: biochemical; conditions: for Ratio of the area under the curve relative to lambda cyhalothrin: after 2 h incubation at 30°C with CpGSTD1, 1 μM permethrin, HPLC
CpGSTD2 [11] = molecular target: T2, CpGSTD2; experiment: Permethrin metabolism assay; type: biochemical; conditions: for Ratio of the area under the curve relative to lambda cyhalothrin: after 2 h incubation at 30°C with CpGSTD2, 1 μM permethrin, HPLC
[12] = substrate: O=[N+]([O-])c1ccc(Cl)c(Cl)c1; experiment: purified protein, by the assay type; conditions: pH 7.5; 30.0 °C
[13] = varying substrate 7.8 to 750 μM, 5 mM reduced GSH, 30°C, pH 7.5
[14] = 2 h, 30°C, conditions where a rate of 7 pmol min^−1 mg^−1 could have been reliably detected

O=C(/C=C/c1ccc(O)cc1)c1ccccc1 [4-hydroxy chalcone, 4-hydroxychalcone]
IC50 (CpGSTD1 [1]): 16 ± 1 µM
IC50 (CpGSTD2 [2]): 5 ± 0.2 µM

O=[N+]([O-])c1ccc(Cl)c([N+](=O)[O-])c1 [CDNB, 1-chloro-2,4-dinitrobenze]
catalytic efficiency ratio (kcat/KM) (AgGSTD1-6): 790000 M⁻¹ s⁻¹
catalytic efficiency ratio (kcat/KM) (AdGSTD1-1): 48000 M⁻¹ s⁻¹
kcat (CpGSTD2 [3]; 5 mM reduced GSH, 30°C, pH 7.5): 7.0 s⁻¹
catalytic efficiency (kcat/KM) higher with CDNB than with DCNB (CpGSTD2 [3]; CpGSTD2): at least 100 fold
turnover of CDNB faster than DCNB (CpGSTD2 [3]; CpGSTD2, CDNB versus DCNB): about 18 fold
Km (CpGSTD2 [3]; [13]): 30 ± 2 µM
Vmax (CpGSTD2 [3]; [13]): 18 ± 0.2 µmol/min/mg
catalytic efficiency (kcat/KM) higher with CDNB than with DCNB (CpGSTD1 [4]; CpGSTD1): at least 100 fold
turnover of CDNB faster than DCNB (CpGSTD1 [4]; CpGSTD1, CDNB versus DCNB): about 230 fold
turnover of CDNB by CpGSTD1 faster than by CpGSTD2 (CpGSTD1 [4]; CpGSTD1 versus CpGSTD2): about 3 fold
Km (CpGSTD1 [4]): 140 ± 10 µM

CC(C)(OO)c1ccccc1 [CMHP, cumene hydroperoxide]
activity towards CMHP (peroxidase activity) (CpGSTD2 [5]): no detectable activity
rate of CMHP reduction (peroxidase activity) (CpGSTD1 [6]): 1.6 µmol/min/mg

O=[N+]([O-])c1ccc(Cl)c(Cl)c1 [DCNB, 1,2-dichloro-4-nitrobenzene]
Km (CpGSTD1 [4]): 170 ± 10 µM

Clc1ccc(C(c2ccc(Cl)cc2)C(Cl)(Cl)Cl)cc1 [DDT, 1,1,1-Trichloro-2,2-bis(4-chlorophenyl)ethane]
rate of DDT metabolism to DDE (CpGSTD1 [7]): 6.4 ± 0.6 nmol per mg protein

CCCCCCSC[C@H](NC(=O)CC[C@H](N)C(=O)O)C(=O)NCC(=O)O [S-hexyl glutathione, S-hexylglutathione]
IC50 (CpGSTD1 [8]): 68 ± 3 µM
IC50 (CpGSTD2 [9]): 0.24 µM
IC50 (CpGSTD2 [9]; pH 7.5): 0.24 ± 0.01 µM

O=C(/C=C/c1ccccc1)c1ccccc1 [chalcone]
IC50 (CpGSTD1 [1]): 12.1 ± 0.4 µM
IC50 (GST-2): 165 µM
IC50 (GST-1b): 166 µM
IC50 (CpGSTD2 [2]): 4 ± 0.2 µM

CC1(C)[C@H](C(=O)OCc2cccc(Oc3ccccc3)c2)[C@@H]1C=C(Cl)Cl [cis-permethrin]
Ratio of the area under the curve relative to lambda cyhalothrin (CpGSTD1 [10]): 0.47 ± 0.02
Ratio of the area under the curve relative to lambda cyhalothrin (CpGSTD2 [11]): 0.51 ± 0.03

C=C(CC)C(=O)c1ccc(OCC(=O)O)c(Cl)c1Cl [ethacrynic acid (EA), ethacrynic acid]
IC50 (CpGSTD2 [2]): 2.5 ± 0.1 µM

CC1(C)C(C=C(Cl)Cl)C1C(=O)OCc1cccc(Oc2ccccc2)c1 (centres unmarked) [permethrin]
metabolism of permethrin (CpGSTD1 [10]; [14]): neither CpGSTD1 nor CpGSTD2 are able to metabolize
metabolism of permethrin (CpGSTD2 [11]; [14]): neither CpGSTD1 nor CpGSTD2 are able to metabolize

CC1(C)[C@H](C=C(Cl)Cl)[C@H]1C(=O)OCc1cccc(Oc2ccccc2)c1 [trans-permethrin]
Ratio of the area under the curve relative to lambda cyhalothrin (CpGSTD1 [10]): 0.24 ± 0.01
Ratio of the area under the curve relative to lambda cyhalothrin (CpGSTD2 [11]): 0.29 ± 0.02

B1: CpGSTD2 (Culex pipiens) (protein)
chain: T2 sequence (H9M8E4 1-214)
Km [12]: 220 ± 10 µM
Vmax [12]: 0.96 ± 0.02 µmol/min/mg
kcat [12]: 0.4 s⁻¹
kcat/Km [12]: 1700 M⁻¹ s⁻¹

Source: article PMC3583349 (Pest management science, 2012)
